Measured values taken from ChEMBL document CHEMBL2384989, “Abietane diterpenoids and a sesquiterpene pyridine alkaloid from Euonymus lutchuensis” (J Nat Prod, 2013).
In brackets after ≈: the same amount, converted by molar mass.

Columns and labels:
Assay type in all cases: functional, cell-based
HL-60 = test: Cytotoxicity against human HL60 cells after 48 hrs by MTT assay; conditions: HL-60, 48 h
HCT-116 = test: Cytotoxicity against human HCT116 cells after 48 hrs by MTT assay; conditions: HCT-116, 48 h
P388 = test: Cytotoxicity against mouse P388 cells after 48 hrs by MTT assay; conditions: P388, 48 h

SMILES	IC50 (HL-60)	IC50 (HCT-116)	IC50 (P388)	IC50 (HL-60; read-out: IC50)	IC50 (HCT-116; read-out: IC50)	IC50 (P388; read-out: IC50)
CC(CO)c1ccc2c(c1)CC[C@H]1C(C)(C)C(=O)CC[C@]21C (stereo partly specified)	> 5 µg/mL	> 5 µg/mL	> 5 µg/mL	–	–	–
CC(CO)c1cc2c(cc1O)[C@@]1(C)CCC(=O)C(C)(C)[C@@H]1CC2 (stereo partly specified)	–	–	–	< 5 µg/mL	< 5 µg/mL	< 5 µg/mL
CC(O)c1ccc2c(c1)CC[C@H]1C(C)(C)C(=O)CC[C@]21C (stereo partly specified)	> 5 µg/mL	> 5 µg/mL	> 5 µg/mL	–	–	–
CC(CO)c1ccc2c(c1)CC[C@H]1C(C)(C)[C@@H](O)C(=O)C[C@]21C (stereo partly specified)	> 5 µg/mL	> 5 µg/mL	> 5 µg/mL	–	–	–
CC(C)c1cc2c(cc1O)C[C@@]13CCCC(C)(C)[C@@H]1C[C@@H]2O3	> 5 µg/mL	> 5 µg/mL	> 5 µg/mL	–	–	–
CC(=O)OC[C@]12[C@H](OC(C)=O)[C@H](OC(C)=O)[C@@H]3[C@@H](O)[C@@]14OC3(C)COC(=O)c1cccnc1[C@H](C)[C@@H](C)C(=O)O[C@H]([C@H](O)[C@@H]2OC(=O)c1ccccc1)C4(C)O (stereo partly specified) [EUOLUCHUMINE]	> 5 µg/mL	> 5 µg/mL	> 5 µg/mL	–	–	–
CC(=O)O[C@H]1C(=O)[C@@]2(C)[C@H]([C@H](OC(=O)c3ccccc3)[C@]3(O)C[C@H](OC(=O)[C@H](O)[C@@H](NC(=O)c4ccccc4)c4ccccc4)C(C)=C1C3(C)C)[C@]1(OC(C)=O)CO[C@@H]1C[C@@H]2O [PACLITAXEL]	–	–	–	0.005 µg/mL (≈ 0.00586 µM)	0.045 µg/mL (≈ 0.0527 µM)	0.2 µg/mL (≈ 0.234 µM)
